Assay results as given in ChEMBL document CHEMBL3885881, “DrugMatrix”.

Species on record: Rattus norvegicus
Assay: DrugMatrix - Regimen: Daily Repeat
Type: toxicity, organism-based, Sprague-Dawley
Design: regimen Daily Repeat, gender Male, age 6-8 weeks
Settings: in vivo, po, route oral GAVAGE, […]; for ABSOLUTE BASOPHIL / ABSOLUTE EOSINOPHIL / ABSOLUTE LYMPHOCYTE / ABSOLUTE MONOCYTE / ABSOLUTE SEGMENTED NEUTROPHIL / BASOPHIL / EOSINOPHIL / ERYTHROCYTE COUNT / HEMATOCRIT / HEMOGLOBIN / LEUKOCYTE COUNT / LYMPHOCYTE / MEAN CORPUSCULAR HEMOGLOBIN / MEAN CORPUSCULAR HEMOGLOBIN CONCENTRATION / MEAN CORPUSCULAR VOLUME / MONOCYTE / NEUTROPHIL / NUCLEATED RED BLOOD CELLS / PLATELET COUNT: tissue Blood; for ALANINE AMINOTRANSFERASE / ALBUMIN / ALKALINE PHOSPHATASE / ASPARTATE AMINOTRANSFERASE / BLOOD UREA NITROGEN / CARBON DIOXIDE / CHLORIDE / CHOLESTEROL / CREATINE PHOSPHOKINASE / CREATININE / GLUCOSE / LACTATE DEHYDROGENASE / LIPASE / PHOSPHORUS / POTASSIUM / SODIUM / TOTAL BILIRUBIN / TOTAL PROTEIN / URIC ACID: tissue Plasma
[1] = 24 mg/kg, 72 h, dose level Low, time 3 day
[2] = 24 mg/kg, 120 h, dose level Low, time 5 day
[3] = 770 mg/kg, 72 h, dose level High, time 3 day
[4] = 770 mg/kg, 120 h, dose level High, time 5 day

## COc1c(N2CCNC(C)C2)c(F)cc2c(=O)c(C(=O)O)cn(C3CC3)c12 (configuration not stated) [GATIFLOXACIN]
[1]
  ABSOLUTE BASOPHIL: 0 CELLS/uL
  ABSOLUTE EOSINOPHIL: 38.67 CELLS/uL
  ABSOLUTE LYMPHOCYTE: 12036 CELLS/uL
  ABSOLUTE MONOCYTE: 222.67 CELLS/uL
  ABSOLUTE SEGMENTED NEUTROPHIL: 769.33 CELLS/uL
  BASOPHIL: 0%
  EOSINOPHIL: 0.33%
  ERYTHROCYTE COUNT: 5.26 x10E6/uL
  HEMATOCRIT: 34.07%
  HEMOGLOBIN: 13.73 G/DL
  LEUKOCYTE COUNT: 13.07 x10E3/uL
  LYMPHOCYTE: 92%
  MEAN CORPUSCULAR HEMOGLOBIN: 26.17 pg
  MEAN CORPUSCULAR HEMOGLOBIN CONCENTRATION: 40.3 G/DL
  MEAN CORPUSCULAR VOLUME: 64.87 fL
  MONOCYTE: 1.67%
  NEUTROPHIL: 6%
  NUCLEATED RED BLOOD CELLS: 0 /100WBC
  PLATELET COUNT: 1216.33 x10E3/uL
  ALANINE AMINOTRANSFERASE: 96.67 u/L
  ALBUMIN: 4.1 G/DL
  ALKALINE PHOSPHATASE: 435.33 u/L
  ASPARTATE AMINOTRANSFERASE: 106.67 u/L
  BLOOD UREA NITROGEN: 15 mg/dL
  CARBON DIOXIDE: 24.67 mmol/L
  CHLORIDE: 100.67 MEQ/L
  CHOLESTEROL: 75 mg/dL
  CREATINE PHOSPHOKINASE: 818.33 u/L
  CREATININE: 0.2 mg/dL
  GLUCOSE: 183 mg/dL
  LACTATE DEHYDROGENASE: 221.67 u/L
  LIPASE: 10.33 u/L
  PHOSPHORUS: 13.13 mg/dL
  POTASSIUM: 6.33 MEQ/L
  SODIUM: 143.27 MEQ/L
  TOTAL BILIRUBIN: 0.17 mg/dL
  TOTAL PROTEIN: 5.77 G/DL
  URIC ACID: 1.7 mg/dL
[2]
  ABSOLUTE BASOPHIL: 0 CELLS/uL
  ABSOLUTE EOSINOPHIL: 0 CELLS/uL
  ABSOLUTE LYMPHOCYTE: 16055.67 CELLS/uL
  ABSOLUTE MONOCYTE: 361 CELLS/uL
  ABSOLUTE SEGMENTED NEUTROPHIL: 1450 CELLS/uL
  BASOPHIL: 0%
  EOSINOPHIL: 0%
  ERYTHROCYTE COUNT: 5.93 x10E6/uL
  HEMATOCRIT: 37%
  HEMOGLOBIN: 14.63 G/DL
  LEUKOCYTE COUNT: 17.87 x10E3/uL
  LYMPHOCYTE: 90%
  MEAN CORPUSCULAR HEMOGLOBIN: 24.73 pg
  MEAN CORPUSCULAR HEMOGLOBIN CONCENTRATION: 39.57 G/DL
  MEAN CORPUSCULAR VOLUME: 62.47 fL
  MONOCYTE: 2%
  NEUTROPHIL: 8%
  NUCLEATED RED BLOOD CELLS: 0 /100WBC
  PLATELET COUNT: 1096 x10E3/uL
  ALANINE AMINOTRANSFERASE: 69 u/L
  ALBUMIN: 4.2 G/DL
  ALKALINE PHOSPHATASE: 431.33 u/L
  ASPARTATE AMINOTRANSFERASE: 90.67 u/L
  BLOOD UREA NITROGEN: 13 mg/dL
  CARBON DIOXIDE: 27.67 mmol/L
  CHLORIDE: 100.67 MEQ/L
  CHOLESTEROL: 70.67 mg/dL
  CREATINE PHOSPHOKINASE: 342 u/L
  CREATININE: 0.2 mg/dL
  GLUCOSE: 149.33 mg/dL
  LACTATE DEHYDROGENASE: 413 u/L
  LIPASE: 10.33 u/L
  PHOSPHORUS: 11.8 mg/dL
  POTASSIUM: 5.99 MEQ/L
  SODIUM: 145.2 MEQ/L
  TOTAL BILIRUBIN: 0.2 mg/dL
  TOTAL PROTEIN: 5.97 G/DL
  URIC ACID: 1.43 mg/dL
[3]
  ABSOLUTE BASOPHIL: 0 CELLS/uL
  ABSOLUTE EOSINOPHIL: 0 CELLS/uL
  ABSOLUTE LYMPHOCYTE: 12067.33 CELLS/uL
  ABSOLUTE MONOCYTE: 215.33 CELLS/uL
  ABSOLUTE SEGMENTED NEUTROPHIL: 450.67 CELLS/uL
  BASOPHIL: 0%
  EOSINOPHIL: 0%
  ERYTHROCYTE COUNT: 6.18 x10E6/uL
  HEMATOCRIT: 38.03%
  HEMOGLOBIN: 15.1 G/DL
  LEUKOCYTE COUNT: 12.73 x10E3/uL
  LYMPHOCYTE: 94.67%
  MEAN CORPUSCULAR HEMOGLOBIN: 24.5 pg
  MEAN CORPUSCULAR HEMOGLOBIN CONCENTRATION: 39.83 G/DL
  MEAN CORPUSCULAR VOLUME: 61.5 fL
  MONOCYTE: 1.67%
  NEUTROPHIL: 3.67%
  NUCLEATED RED BLOOD CELLS: 0 /100WBC
  PLATELET COUNT: 1233.67 x10E3/uL
  ALANINE AMINOTRANSFERASE: 57 u/L
  ALBUMIN: 4.07 G/DL
  ALKALINE PHOSPHATASE: 327 u/L
  ASPARTATE AMINOTRANSFERASE: 64.33 u/L
  BLOOD UREA NITROGEN: 11 mg/dL
  CARBON DIOXIDE: 24.33 mmol/L
  CHLORIDE: 103.67 MEQ/L
  CHOLESTEROL: 37 mg/dL
  CREATINE PHOSPHOKINASE: 603.67 u/L
  CREATININE: 0.29 mg/dL
  GLUCOSE: 368.33 mg/dL
  LACTATE DEHYDROGENASE: 191.67 u/L
  LIPASE: 8.67 u/L
  PHOSPHORUS: 12.53 mg/dL
  POTASSIUM: 6.44 MEQ/L
  SODIUM: 143.43 MEQ/L
  TOTAL BILIRUBIN: 0.13 mg/dL
  TOTAL PROTEIN: 5.6 G/DL
  URIC ACID: 2.13 mg/dL
[4]
  ABSOLUTE BASOPHIL: 0 CELLS/uL
  ABSOLUTE EOSINOPHIL: 57.33 CELLS/uL
  ABSOLUTE LYMPHOCYTE: 15898 CELLS/uL
  ABSOLUTE MONOCYTE: 55 CELLS/uL
  ABSOLUTE SEGMENTED NEUTROPHIL: 1089.67 CELLS/uL
  BASOPHIL: 0%
  EOSINOPHIL: 0.33%
  ERYTHROCYTE COUNT: 6.68 x10E6/uL
  HEMATOCRIT: 41.6%
  HEMOGLOBIN: 16.5 G/DL
  LEUKOCYTE COUNT: 17.1 x10E3/uL
  LYMPHOCYTE: 93%
  MEAN CORPUSCULAR HEMOGLOBIN: 24.7 pg
  MEAN CORPUSCULAR HEMOGLOBIN CONCENTRATION: 39.67 G/DL
  MEAN CORPUSCULAR VOLUME: 62.27 fL
  MONOCYTE: 0.33%
  NEUTROPHIL: 6.33%
  NUCLEATED RED BLOOD CELLS: 0 /100WBC
  PLATELET COUNT: 1161 x10E3/uL
  ALANINE AMINOTRANSFERASE: 71 u/L
  ALBUMIN: 4 G/DL
  ALKALINE PHOSPHATASE: 300.33 u/L
  ASPARTATE AMINOTRANSFERASE: 74.33 u/L
  BLOOD UREA NITROGEN: 12.33 mg/dL
  CARBON DIOXIDE: 26.67 mmol/L
  CHLORIDE: 99.67 MEQ/L
  CHOLESTEROL: 30.67 mg/dL
  CREATINE PHOSPHOKINASE: 501.33 u/L
  CREATININE: 0.29 mg/dL
  GLUCOSE: 338.33 mg/dL
  LACTATE DEHYDROGENASE: 199 u/L
  LIPASE: 8.67 u/L
  PHOSPHORUS: 11.53 mg/dL
  POTASSIUM: 6.37 MEQ/L
  SODIUM: 141.3 MEQ/L
  TOTAL BILIRUBIN: 0.2 mg/dL
  TOTAL PROTEIN: 5.53 G/DL
  URIC ACID: 2.07 mg/dL
